According to publication PMC8312610, “F4, a collagen XIX-derived peptide, inhibits tumor angiogenesis through αvβ3 and α5β1 integrin interaction” (Cell Adhesion & Migration, 2021):
Positions of bridges follow the written chain, without caps; N, C: chain ends. No end group written: not given here.

Legend:
[1] = test system: HUVEC; assay: Capillary (pseudo-)tube formation on Matrigel; type: cell-based, human
Protocol: Figure 2. NC1(XIX) and F4 inhibit endothelial cell in vitro pseudotube formation. 50,000 HUVEC were seeded in Matrigel coated well of a 48 well-plate and incubated with or without 40 μM NC1(XIX) or F4. Pseudotube formation was observed and photographed under an inverted microscope after 8 hours (a). The number of segments, of nodes and the total length of pseudotubes were quantified by the ImageJ software, using the Angiogenesis Analyzer tool (b). The values are the means ± SD (n = 8 replicates). *** p < 0.001). The experiment was repeated three times (N = 3)
Human Umbilical Vein Endothelial Cells (HUVEC) (Ref C-12253) were purchased from Promocell. They were grown in Endothelial Cell Growth Medium (ECGM) (Promocell, Ref C-22110: Basal medium supplemented with 0.02 mL/mL Fetal Calf Serum, 0.004 mL/mL Endothelial Cell Growth Supplement, 0.1 ng/mL Epidermal Growth Factor (recombinant human), 1 ng/mL Basic Fibroblast Growth Factor (recombinant human), 90 μg/mL Heparin, 1 μg/mL Hydrocortisone) at +37°C in a humid atmosphere containing 5% CO2. PromoCell Detach Kit was used for the detachment of HUVEC according to the manufacturer’s protocols (Promocell, ref C-41200).
The ability of HUVEC to form pseudo-tubes was investigated on Matrigel (Corning, ref 356237). Matrigel was loaded into 48-well plate and allowed to polymerize at +37°C for 2 h. 50,000 HUVEC suspended in Basal media supplemented with 0.004 mL/mL Endothelial Cell Growth Supplement, 90 μg/mL Heparin, 1 μg/mL Hydrocortisone with or without 40 μM NC1(XIX) or F4 were seeded into each well. Plates were incubated at +37°C in a humid atmosphere containing 5% CO2, 95% for 8 h. The formation of the capillary network was then imaged under an inverted light microscope. Quantitative evaluation of the capillary network was performed using the angiogenesis analyzer tool of ImageJ analysis software. The number of nodes, of segments and the total length of the capillary network were determined.

[2] = test system: α5β1 integrin; assay: F4 affinity chromatography of HUVEC extracts with western blot; type: binding, human; conditions: HUVEC protein extract, F4 peptide-Sepharose (F4 reduced with DTT), NaCl elution 0.15, 0.6 and 1.0 M, +4°C, N = 2
Protocol: (§1) HUVEC were cultured as previously described in a Nunclon® 150 cm^2 flask. At 80%-confluence, cells were washed with HBSS and scrapped in lysis buffer (RIPA buffer, Sigma, ref R0278-50ML) supplemented with 1% (v/v) Halt Protease Inhibitor Cocktail (ThermoFisher, ref 78430). Cell lysates were incubated for 30 min at +4°C and vortexed every 5 min. Unsoluble debris were pelleted by centrifugation at 10,000 g for 10 min at +4°C. Bio-Rad Protein Assay (Bio-Rad, Marne-La-Coquette, France) was used to determine the protein concentrations according to the manufacturer’s instructions. […] HUVEC protein extracts were chromatographed at +4°C. Unbound protein were removed with 30 mL of washing buffer (10 mM Tris, 1 mM CaCl2, 1 mM MgCl2, pH 7.6, 1% (v/v) Protease Inhibitor Cocktail and 0.1% (w/v) octylglucoside (Sigma, ref O8001-100 MG)) according to the manufacturer’s instructions. Proteins bound to the affinity column were then eluted with elution buffer (10 mM Tris, pH 7.6, 1% (w/v) PIC and 0.1% (w/v) octylglucoside) supplemented with increasing concentrations of NaCl (0.15, 0.6 and 1 M). Absorbance was read at 280 nm to check protein elution and fractions corresponding to the different NaCl concentrations were pooled and concentrated using NanoSep Centrifugal Devices (cutoff 10 kDa; Pall). […]

[3] = test system: αvβ3 integrin; assay: as above; type: binding, human; conditions: HUVEC protein extract, F4 peptide-Sepharose (F4 reduced with DTT), NaCl elution 0.15, 0.6 and 1.0 M, +4°C, N = 2
Protocol: as §1

[4] = 40 µM, 8 h, 50,000 HUVEC on Matrigel, ImageJ Angiogenesis Analyzer, p < 0.001 for NC1(XIX) and F4, n = 8, N = 3

CNPEDCLYPVSHAHQR (disulfide 1-6 (inferred)) [F4, collagen XIX-derived peptide, released by plasmin from type XIX collagen]
decrease of the number of nodes vs control [1, 4]: 77%
decrease of the number of segments vs control [1, 4]: 52%
decrease of the total length of capillary tubes vs control [1, 4]: 49%
inhibition of capillary network, F4 compared with NC1(XIX) ([1]; 40 µM, 8 h, HUVEC on Matrigel): stronger inhibition of the number of nodes, segments and of the total length of capillary network than NC1(XIX) peptide
inhibition of pseudo-tube formation ([1]; 40 µM, 8 h, HUVEC on Matrigel, compared to control): strongly inhibited pseudo-tube formation
inhibition of VEGF-induced pseudo-tube formation ([1]; endothelial cells on Matrigel (abstract)): inhibited VEGF-induced pseudo-tube formation
anti-angiogenic effect on pseudo-tube formation, F4 compared with NC1(XIX) (discussion) ([1]; in vitro): even greater than the whole NC1(XIX) domain
α5 and β1 subunits bound to F4 column (western blot) [2]: two bands in 0.6 M NaCl eluted sample which matched the 140 and 120 kDa bands of the recombinant α5β1 integrin
αv and β3 subunits bound to F4 column (western blot) [3]: two bands which matched the 150 and 110 kDa bands of the recombinant αvβ3 integrin
